# Paper PMC10535219, “Discovery and Potential Utility of a Novel Non-Invasive Ocular Delivery Platform” (Pharmaceutics, 2023)
# Like-named read-outs stand apart in the source and are kept apart here.
# Key:
# [1] = Biodisposition of JV-DE1 and JV-MD2 delivered via NIODP (periorbital skin) in non-human primates; type: in vivo, cynomolgus monkeys; details: for Cmax / concentration at 24 h / concentration at 3 h / concentration at 6 h / concentration at 0.5 h: cynomolgus, cynomolgus monkey
# Protocol: All experiments were performed at Medicilon. […] A pen brush was used to dose each formulation with three to four circular motions for even distribution. The doses of the test articles were selected based on their solubility/concentration with the maximum deliverable volume on the periorbital skin of the animals. The administered dose was calculated by the weight difference of the pen brush before and after administration. Animals were restrained from eye rubbing in restraint chairs for 2 h after dosing, with access to food and drink. A blood sample was collected from one of the study animals at pre-dosing. For every time point of 0.5, 3, 6, and 24 h post-dose, one animal was euthanized and the ocular tissues (upper eyelid, cornea, retina, and vitreous humor) of both eyes were collected. Plasma samples were collected before each euthanization.
# For the convenience of tissue processing and sample extraction, only upper eyelids were collected to represent the entirety of the periorbital tissue. Ocular tissues were homogenized by adding a 9-fold volume of 50% methanol/H2O per gram of tissue. For the LC-MS/MS sample preparation, a 50 μL aliquot of plasma, aqueous humor, vitreous humor, or tissue homogenate was thoroughly mixed with a 250 μL extraction solution of CHCl3/EtOH (1:1); then, a 210 μL supernatant of the samples was transferred to a 96-well plate after centrifugation. The samples were evaporated in nitrogen gas (N2) until dried. Each sample was redissolved in 200 μL MeOH, of which 2 µL was injected for the LC-MS/MS analysis.
# The LC system was the same as that described in Section 2. The MS analysis was performed using a Triple Quad 5500 with an ESI ion source, and the data acquisition and control system were Analyst 1.6.3 software from Applied Biosystems/MDS Sciex.
# The LC/MS conditions for JV-DE1 are described in Supplementary Table S2. The LC conditions were as follows: ACQUITY UPLC ® BEH C18 1.7 μm, 2.1 mm × 50 mm; the mobile phase Column A, 0.1% formic acid in water; and Column B, 0.1% formic acid in acetonitrile. The flow rate was 0.6 ml/min, the column temperature was 50 °C, and the injection volume was 2 µL. The MS conditions were as follows: scan type, positive MRM; ion source, turbo spray; ionization model, ESI; nebulizer gas 1, 55 psi; gas 2, 55 psi; curtain gas, 40 psi; CAD, 10; ionspray voltage, 5500 V; and temperature, 550 °C.
# The LC/MS conditions for JV-MD2 (DHA) are described in Supplementary Table S3. The LC conditions were as follows: ACQUITY UPLC® BEH C18 1.7 μm, 2.1 mm × 50 mm; the mobile phase Column A, […] NH4AC in H2O; and Column B, CAN. The flow rate was 0.5 mL/min, the column temperature was 40 °C, and the injection volume was 4 µL. The MS conditions were as follows: scan type, negative MRM; ion source, turbo spray; ionization model, ESI; nebulizer gas 1, 55 psi; gas 2, 55 psi; curtain gas, 40 psi; CAD, 9; ionspray voltage, 5500 V; and temperature, 550 °C.
# human PAF receptor = target: human PAF receptor; parameters: method as in PMID 16331286; details: cited from earlier work
# human IP receptor = target: human IP receptor; parameters: method as in PMID 16331286; details: cited from earlier work
# [2] = JV-DE1, monkey, NIODP OD, 159.3 μg/eye, 24 h
# [3] = JV-DE1, monkey, NIODP OD, 160.6 μg/eye, 3 h
# [4] = JV-DE1, monkey, NIODP OD, 162.2 μg/eye, 6 h
# [5] = JV-DE1, monkey, NIODP OD, 179.1 μg/eye, 0.5 h
structure (smiles),measurement,setting,value
"CC(C)Oc1ccc(Cc2ccc(NC3=NCCN3)cc2)cc1 [JV-DE1, 4,5-dihydro-N-[4-[[4-(1-methylethoxy)phenyl]methyl]phenyl]-1H-imadazol-2-amine]",Drug in plasma,"[1]; JV-DE1 0.53% w/w, monkey, NIODP periorbital skin OD, 159.3 μg/eye, 24 h, LLOQ 0.0001 µg/mL",BLQ
same,"% Administered Dose, Cornea",[1]; [2],0.0326%
same,"% Administered Dose, Eyelid/periorbital skin",[1]; [2],0.7501%
same,"% Administered Dose, Retina",[1]; [2],0.0002%
same,"% Administered Dose, Vitreous humor",[1]; [2],0.0018%
same,"% Administered Dose, Cornea",[1]; [3],0.3430%
same,"% Administered Dose, Eyelid/periorbital skin",[1]; [3],1.4956%
same,"% Administered Dose, Retina",[1]; [3],0.0004%
same,"% Administered Dose, Vitreous humor",[1]; [3],0.0029%
same,"% Administered Dose, Cornea",[1]; [4],0.5900%
same,"% Administered Dose, Eyelid/periorbital skin",[1]; [4],0.3477%
same,"% Administered Dose, Retina",[1]; [4],0.0005%
same,"% Administered Dose, Vitreous humor",[1]; [4],0.0031%
same,"% Administered Dose, Cornea",[1]; [5],0.1921%
same,"% Administered Dose, Eyelid/periorbital skin",[1]; [5],0.6370%
same,"% Administered Dose, Retina",[1]; [5],0.0004%
same,"% Administered Dose, Vitreous humor",[1]; [5],0.0047%
same,plasma concentrations,"[1]; JV-DE1, monkey, NIODP about 165.3 µg/eye OD, all time points, LLOQ 0.0001 µg/mL",≤ 0.3 ng/mL
same,maximum delivery efficiency in the retina,"[1]; JV-DE1, monkey, via NIODP",0.0005%
same,"decrease of maximum retinal delivery efficiency, NIODP vs eye drop","[1]; JV-DE1, monkeys (NIODP) vs rabbits (eye drop), not head-to-head",about 10 fold
same,Cmax,"[1]; cornea, topical or ocular, 165.3 ug, JV-DE1, monkey, NIODP about 165.3 µg/eye OD, read-out: Cmax in cornea",9300 ng/g
same,concentration at 24 h,"[1]; cornea, topical, JV-DE1, monkey, NIODP OD, 159.3 μg/eye, 24 h, read-out: Drug in OD Tissues, Cornea",1620 ng/g
same,concentration at 3 h,"[1]; cornea, topical, JV-DE1, monkey, NIODP OD, 160.6 μg/eye, 3 h, read-out: Drug in OD Tissues, Cornea",16700 ng/g
same,concentration at 6 h,"[1]; cornea, topical, JV-DE1, monkey, NIODP OD, 162.2 μg/eye, 6 h, read-out: Drug in OD Tissues, Cornea",23900 ng/g
same,concentration at 0.5 h,"[1]; cornea, topical, JV-DE1, monkey, NIODP OD, 179.1 μg/eye, 0.5 h, read-out: Drug in OD Tissues, Cornea",9300 ng/g
same,concentration at 24 h,"[1]; eyelid/periorbital skin (upper eyelid), topical, JV-DE1, monkey, NIODP OD, 159.3 μg/eye, 24 h, read-out: Drug in OD Tissues, Eyelid/periorbital skin",11600 ng/g
same,concentration at 3 h,"[1]; eyelid/periorbital skin (upper eyelid), topical, JV-DE1, monkey, NIODP OD, 160.6 μg/eye, 3 h, read-out: Drug in OD Tissues, Eyelid/periorbital skin",32500 ng/g
same,concentration at 6 h,"[1]; eyelid/periorbital skin (upper eyelid), topical, JV-DE1, monkey, NIODP OD, 162.2 μg/eye, 6 h, read-out: Drug in OD Tissues, Eyelid/periorbital skin",7950 ng/g
same,concentration at 0.5 h,"[1]; eyelid/periorbital skin (upper eyelid), topical, JV-DE1, monkey, NIODP OD, 179.1 μg/eye, 0.5 h, read-out: Drug in OD Tissues, Eyelid/periorbital skin",26500 ng/g
same,Cmax,"[1]; eyelid/periorbital skin, topical or ocular, 165.3 ug, JV-DE1, monkey, NIODP about 165.3 µg/eye OD, read-out: Cmax in eyelid/periorbital skin",26500 ng/g
same,concentration at 3 h,"[1]; plasma, topical, JV-DE1 0.53% w/w, monkey, NIODP periorbital skin OD, 160.6 μg/eye, 3 h, read-out: Drug in plasma",0.2 ng/mL
same,concentration at 6 h,"[1]; plasma, topical, JV-DE1 0.53% w/w, monkey, NIODP periorbital skin OD, 162.2 μg/eye, 6 h, read-out: Drug in plasma",0.3 ng/mL
same,concentration at 0.5 h,"[1]; plasma, topical, JV-DE1 0.53% w/w, monkey, NIODP periorbital skin OD, 179.1 μg/eye, 0.5 h, read-out: Drug in plasma",0.1 ng/mL
same,Cmax,"[1]; retina, topical or ocular, 165.3 ug, JV-DE1, monkey, NIODP about 165.3 µg/eye OD, read-out: Cmax in retina",45.5 ng/g
same,Cmax,"[1]; retina, topical, 165.3 µg per eye, JV-DE1, monkey, NIODP, read-out: retinal Cmax",147 nM
same,concentration at 24 h,"[1]; retina, topical, JV-DE1, monkey, NIODP OD, 159.3 μg/eye, 24 h, read-out: Drug in OD Tissues, Retina",5.5 ng/g
same,concentration at 3 h,"[1]; retina, topical, JV-DE1, monkey, NIODP OD, 160.6 μg/eye, 3 h, read-out: Drug in OD Tissues, Retina",27.9 ng/g
same,concentration at 6 h,"[1]; retina, topical, JV-DE1, monkey, NIODP OD, 162.2 μg/eye, 6 h, read-out: Drug in OD Tissues, Retina",45.5 ng/g
same,concentration at 0.5 h,"[1]; retina, topical, JV-DE1, monkey, NIODP OD, 179.1 μg/eye, 0.5 h, read-out: Drug in OD Tissues, Retina",39.6 ng/g
same,Cmax,"[1]; vitreous humor, topical or ocular, 165.3 ug, JV-DE1, monkey, NIODP about 165.3 µg/eye OD, read-out: Cmax in vitreous humor",19 ng/mL
same,concentration at 24 h,"[1]; vitreous humor, topical, JV-DE1, monkey, NIODP OD, 159.3 μg/eye, 24 h, read-out: Drug in OD Tissues, Vitreous humor",19 ng/mL
same,concentration at 3 h,"[1]; vitreous humor, topical, JV-DE1, monkey, NIODP OD, 160.6 μg/eye, 3 h, read-out: Drug in OD Tissues, Vitreous humor",7.9 ng/mL
same,concentration at 6 h,"[1]; vitreous humor, topical, JV-DE1, monkey, NIODP OD, 162.2 μg/eye, 6 h, read-out: Drug in OD Tissues, Vitreous humor",3.9 ng/mL
same,concentration at 0.5 h,"[1]; vitreous humor, topical, JV-DE1, monkey, NIODP OD, 179.1 μg/eye, 0.5 h, read-out: Drug in OD Tissues, Vitreous humor",15.2 ng/mL
same,pKi,human PAF receptor,7.9
same,Ki,human IP receptor,0.5 nM
same,pKi,human IP receptor,9.3
